Reference: US11590117B2, “Treatment of a hematologic malignancy with 2-(4-chlorophenyl)-n-((2-(2,6-dioxopiperidin-3-yl)-1-oxoisoindolin-5-yl)methyl)-2,2-difluoroacetamide” (priority 2016, dated 2023)
“And” between values parts separate entries of the source, which are not always exact repeats. Equal values may be shown once. Read-outs that look alike come from different tables or passages of the source.

Assays:
[1] = system: Red-labeled AML cell lines; assay: IncuCyte live cell imaging of cell viability, sub-panel of twelve Red-labeled AML cell lines; assay type: cell-based; conditions: Homo sapiens, 96 h
Method: Derivation of Red-labeled Acute Myeloid Leukemia Cell Lines: Twelve cell lines, including AML-193, HL-60, KG-1, ML-2, MOLM-13, MV-4-11, NOMO-1, OCI-AML2, OCI-AML3, SIG-M5, TF-1, and THP-1, were stably transduced with Red lentivirus. Cells were plated in 6-well plates in growth media, incubated with 8 µg/mL polybrene (EMD Millipore Cat no. TR-1003-G) followed by infection with CellPlayer™ NucLight™ Red-lentiviral particles (Essen Biosciences Cat no. 4478) at a multiplicity of infectivity (MOI) of 0.5 to 2.5 for 24 hours. MOI refers to the ratio of virus particles to cells. Virus-containing media was replaced with fresh growth media and incubated for an additional 24 to 48 hours, followed by selection with Zeocin (500 to 2000 μg/mL), a derivative of bleomycin (Life Technologies-Invitrogen Cat no. R250-01). Cells were selected with fresh Zeocin every 3 to 4 days for 3 to 8 weeks. Cells were periodically viewed using fluorescent microscopy for nuclear-restricted red fluorescence. Zeocin selection was terminated once the population was confirmed to stably fluoresce red. All Red-labeled cell lines were acclimated to EMEM containing 20% FBS, with or without GM-CSF supplementation, allowing for optimal live cell imaging.
Incubation of Cell Cultures with Compound 1: Compound 1 was provided for studies by Celgene chemistry group at a stock concentration of 30 mM in 20 μL dimethyl sulfoxide (DMSO) frozen. Costar 96-well cell culture plates (Corning Cat no. 3595) were coated with 100 μL of 10 µg/mL fibronectin (Sigma-Aldrich Cat no. F1141) for 4 hours at 37° C. and immediately used or refrigerated overnight for later use. Cells (3000 to 6000 cells) were plated in growth medi in fibronectin-coated 96-well plates and incubated for a minimum of a few hours to overnight. Cells were incubated with a 12-point concentration response in triplicate with Compound 1 ([…]) including DMSO and Media controls. A 3-fold serial dilution of Compound 1 starting from a concentration of 200 μM in 0.6% DMSO (diluted in Media) was performed. For most sensitive cell lines, a 3-fold serial dilution of Compound 1 starting from a concentration of 20 μM in 0.6% DMSO (diluted in media) was performed. A volume of 5 μL or 10 μL for each dilution was added to 100 μL or 200 μL cells, respectively (0.3% DMSO final) and incubated for live cell imaging.
Live Cell Imaging on IncuCyte Zoom: Following incubation of cells with Compound 1, diluted Caspase 3/7 reagent (Essen Biosciences Cat no. 4440) is added to each well. […] Caspase-3/7 activation was quantified using the IncuCyte™ ZOOM basic analyzer. […]
Twelve Red-labeled human AML cell lines, established as described above, were incubated with Compound 1 dose range (0 to 10 μM) and Red fluorescence or Object count was imaged over time, as described above. […]

[2] = system: CFU-GM (granulocyte/monocyte progenitors); assay: Colony forming assay, bone marrow CD34+ cells in MethoCult; assay type: cell-based, human
Method: Experimental design: human bone marrow (BM) CD34+ cells were used to evaluate the potential for BM toxicity induced by Compound 1. In order to test the effects of Compound 1 on the functionality of hematopoietic progenitors, colony forming assays were done by seeding BM CD34+ cells on MethoCult medium. Cells were seeded directly in MethoCult with Compound 1 or cultured in liquid medium with Compound 1 for 2, 4, or 8 hours and then seeded in compound-free MethoCult to evaluate the effect of different exposure times. Early apoptosis induced by Compound 1 on HSC was analyzed by flow cytometry.
Results. Colony forming units (CFU) of common granulocyte/erythrocyte/monocyte/megakaryocyte (CFU-GEMM), CFU of granulocyte/monocyte (CFU-GM), burst forming unit of erythrocytes (BFU-E), and CFU of erythrocytes (CFU-E) in cultures exposed to Compound 1 or DMSO were scored on STEMvision.
Bone marrow CD34+ cells from normal donors were incubated with Compound 1 in MethoCult medium. Colony numbers for CFU-GM and BFU-E progenitors were counted using STEMVision automatic colony counting instrument and software and normalized to the colony number of the DMSO control. Results plotted as percentage of DMSO control vs concentration of Compound 1 were used to determine IC50 values. Data are shown as mean standard error of the mean of n=3 technical replicates. Donors were HD10, HD14, HD18, and HD19.
FIGS. 33A and 33B provide, colony numbers after preincubation of bone marrow CD34+ cells with Compound 1 for 4 or 8 hours, respectively, in Iscove's medium, followed by incubation in MethoCult medium without Compound 1 for 14 days. FIG. 33C provides colony numbers after incubation of bone marrow CD34+ cells in MethoCult medium in continuous presence of Compound 1 for 14 days.

## O=C1CCC(N2Cc3cc(CNC(=O)C(F)(F)c4ccc(Cl)cc4)ccc3C2=O)C(=O)N1 (stereo not shown) [Compound 1, 2-(4-chlorophenyl)-N-((2-(2,6-dioxopiperidin-3-yl)-1-oxoisoindolin-5-yl)methyl)-2,2-difluoroacetamide]
[1]; four moderately sensitive cell lines (TF-1, THP-1, SIG-M5, OCI-AML3), read-out: cell viability EC50 96hr (range)
  EC50: 58 to 186 nM
[1]; four moderately sensitive cell lines, read-out: cell viability average EC50 96hr
  EC50: 121 nM
[1]; seven highly sensitive cell lines (AML-193, ML-2, HL-60, KG-1, NOMO-1, MV-4-11, OCI-AML2), read-out: cell viability EC50 96hr (range)
  EC50: 2 to 40 nM
[1]; seven highly sensitive cell lines, read-out: cell viability average EC50 96hr
  EC50: 15 nM
[2]; Donor HD10, 7.4 nM Compound 1, replicate counts
  Colony Number CFU-GM: 82 and 74
[2]; Donor HD10, 22.2 nM Compound 1, replicate counts
  Colony Number CFU-GM: 71 and 80
[2]; Donor HD10, 67 nM Compound 1, replicate counts
  Colony Number CFU-GM: 48 and 61
[2]; Donor HD10, 200 nM Compound 1, replicate counts
  Colony Number CFU-GM: 2 and 0
[2]; Donor HD10, 600 nM Compound 1, replicate counts
  Colony Number CFU-GM: 0
[2]; Donor HD14, 7.4 nM Compound 1, replicate counts
  Colony Number CFU-GM: 15 and 12
[2]; Donor HD14, 22.2 nM Compound 1, replicate counts
  Colony Number CFU-GM: 16 and 15
[2]; Donor HD14, 67 nM Compound 1, replicate counts
  Colony Number CFU-GM: 6 and 4
[2]; Donor HD14, 200 nM Compound 1, replicate counts
  Colony Number CFU-GM: 0
[2]; Donor HD14, 600 nM Compound 1, replicate counts
  Colony Number CFU-GM: 0
[2]; Donor HD18, 7.4 nM Compound 1, replicate counts
  Colony Number CFU-GM: 59 and 73
[2]; Donor HD18, 22.2 nM Compound 1, replicate counts
  Colony Number CFU-GM: 55 and 62
[2]; Donor HD18, 67 nM Compound 1, replicate counts
  Colony Number CFU-GM: 2 and 6
[2]; Donor HD18, 200 nM Compound 1, replicate counts
  Colony Number CFU-GM: 0
[2]; Donor HD18, 600 nM Compound 1, replicate counts
  Colony Number CFU-GM: 0
[2]; Donor HD19, 7.4 nM Compound 1, replicate counts
  Colony Number CFU-GM: 44 and 70
[2]; Donor HD19, 22.2 nM Compound 1, replicate counts
  Colony Number CFU-GM: 34 and 35
[2]; Donor HD19, 67 nM Compound 1, replicate counts
  Colony Number CFU-GM: 4 and 5
[2]; Donor HD19, 200 nM Compound 1, replicate counts
  Colony Number CFU-GM: 0
[2]; Donor HD19, 600 nM Compound 1, replicate counts
  Colony Number CFU-GM: 0
[2]; Homo sapiens, CFU-GM, CD34+ cells from four healthy donors, Compound 1 in MethoCult, read-out: IC50, inhibition of granulo-monocytic progenitors (CFU-GM)
  IC50: 82 to 135 nM
